The assay concerns the target P-glycoprotein (Pgp; Abcb1a, MDR3) (Mus musculus, UniProt P21447). The experiment in a line: intrinsic protein fluorescence quenching. The assay is classed as binding.

SMILES strings stand for the structures.

A word on the Kd: it is the equilibrium constant for the complex coming apart. The low end stands for a tighter complex, the high end for a looser complex.

P-glycoprotein (Pgp; Abcb1a, MDR3), sequence (P21447 whole entry): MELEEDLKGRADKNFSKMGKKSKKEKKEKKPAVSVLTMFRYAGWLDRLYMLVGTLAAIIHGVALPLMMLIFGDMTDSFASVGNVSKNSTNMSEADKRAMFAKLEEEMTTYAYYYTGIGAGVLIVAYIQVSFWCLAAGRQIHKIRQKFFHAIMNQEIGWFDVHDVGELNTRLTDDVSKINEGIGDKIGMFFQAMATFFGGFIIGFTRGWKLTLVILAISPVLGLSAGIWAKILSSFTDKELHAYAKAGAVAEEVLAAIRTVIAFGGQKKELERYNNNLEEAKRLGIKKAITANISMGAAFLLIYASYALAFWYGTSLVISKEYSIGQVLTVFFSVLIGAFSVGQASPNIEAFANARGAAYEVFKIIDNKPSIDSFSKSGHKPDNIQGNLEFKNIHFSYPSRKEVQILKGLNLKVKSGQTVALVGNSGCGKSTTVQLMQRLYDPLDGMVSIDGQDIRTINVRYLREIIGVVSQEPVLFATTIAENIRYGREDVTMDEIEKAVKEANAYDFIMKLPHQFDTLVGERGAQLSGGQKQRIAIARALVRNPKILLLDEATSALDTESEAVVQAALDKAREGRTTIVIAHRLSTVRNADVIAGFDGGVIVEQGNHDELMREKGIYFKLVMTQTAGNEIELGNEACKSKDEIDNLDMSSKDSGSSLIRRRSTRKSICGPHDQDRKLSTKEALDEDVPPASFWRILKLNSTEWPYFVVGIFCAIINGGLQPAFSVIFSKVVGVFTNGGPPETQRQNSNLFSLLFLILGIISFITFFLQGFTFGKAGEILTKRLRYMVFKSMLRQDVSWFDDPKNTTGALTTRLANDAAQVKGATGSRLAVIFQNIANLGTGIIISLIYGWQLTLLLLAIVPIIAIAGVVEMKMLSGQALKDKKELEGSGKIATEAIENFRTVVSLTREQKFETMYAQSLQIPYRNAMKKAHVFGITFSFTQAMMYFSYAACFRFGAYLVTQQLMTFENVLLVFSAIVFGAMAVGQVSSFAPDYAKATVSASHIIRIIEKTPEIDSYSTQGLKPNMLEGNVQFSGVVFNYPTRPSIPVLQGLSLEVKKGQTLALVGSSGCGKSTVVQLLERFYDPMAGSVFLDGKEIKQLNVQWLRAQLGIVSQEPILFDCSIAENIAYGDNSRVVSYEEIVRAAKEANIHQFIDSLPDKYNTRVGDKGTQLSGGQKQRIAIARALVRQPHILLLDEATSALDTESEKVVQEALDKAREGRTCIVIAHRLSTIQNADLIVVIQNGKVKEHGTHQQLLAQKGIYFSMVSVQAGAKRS

Take `COc1cccc2c1C(=O)c1c(O)c3c(c(O)c1C2=O)C[C@@](O)(C(=O)CO)C[C@@H]3O[C@H]1C[C@H](N)[C@H](O)[C@H](C)O1` [DOX, doxorubicin]: the Kd stood at 16.9 ± 1.3 µM.
`COc1cccc2c1C(=O)c1c(O)c3c(c(O)c1C2=O)C[C@@](O)(C(C)=O)C[C@@H]3O[C@H]1C[C@H](N)[C@H](O)[C@H](C)O1` [DNR, daunorubicin] yielded a dissociation constant Kd of 16.3 ± 0.7 µM.

For the origin of these results see PMC8262137 (Biochemical pharmacology, 2020).
